Entries after “also recorded” stand apart in the source; their conditions may differ. Read-outs that look alike come from different tables or passages of the source.
How the values were obtained:
CBP = CBP (Homo sapiens, UniProt Q92793); test: binding to coactivator CBP (affinity chromatography; binding and isothermal calorimetry)
Excerpt: (§1) ICG-001. Applicant's pharmacologic tools were identified using cell-based forward chemical genomic screens of small molecule secondary structure template chemical libraries (22).
(§2) Applicant next mapped the binding domains between CBP and beta-catenin, as well as between p300 and beta-catenin. The C-terminal trans-activating region of beta-catenin (647-781) interacted with the same 1-111 amino acids of both CBP and p300 (23). However, only the interaction between CBP and beta-catenin was disrupted by ICG-001, and not the p300/beta-catenin interaction.

[1] = tested on: Wnt/catenin transcription in SW480 colon carcinoma cells; test: TOPFLASH TCF/catenin luciferase reporter; type: cell-based; conditions: Homo sapiens
Excerpt: as §1

[2] = biological target: p300/beta-catenin interaction (Homo sapiens, UniProt Q09472); test: disruption of p300/beta-catenin interaction; type: binding
Sequence of p300/beta-catenin interaction (Q09472 1-111): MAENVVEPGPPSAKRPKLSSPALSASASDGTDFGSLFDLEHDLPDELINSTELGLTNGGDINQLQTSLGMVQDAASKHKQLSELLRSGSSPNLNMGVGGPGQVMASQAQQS
Excerpt: as §2

[3] = tested on: rat type II lung epithelial cells; test: TGF-β1-induced EMT genes in rat type II lung epithelial cells; type: cell-based
Excerpt: Fibrosis. Idiopathic pulmonary fibrosis (IPF)/usual interstitial pneumonia (UIP), the most common of the idiopathic interstitial pneumonias, is a devastating, progressive disorder characterized by excessive fibroblast proliferation and extracellular matrix remodeling leading to lung destruction. There is currently no effective therapy for this uniformly fatal disease. An emerging paradigm proposes a central role for alveolar epithelial cell injury and dysregulated repair in the pathogenesis of IPF. Injury to the epithelium is thought to initiate a cascade of fibroblast activation and matrix deposition, which in predisposed hosts fails to resolve as it would in the course of normal wound repair. Epithelial cells undergo excessive apoptosis, whereas fibroblasts are less amenable to apoptosis and manifest increased survival. The well-characterized model of bleomycin-induced lung injury has been extensively used to investigate potential pathways involved in the pathogenesis of pulmonary fibrosis and to explore therapeutic approaches.

[4] = biological target: CBP/beta-catenin interaction (Homo sapiens, UniProt Q92793); test: disruption of CBP/beta-catenin interaction; type: binding
Sequence of CBP/beta-catenin interaction (Q92793 1-111): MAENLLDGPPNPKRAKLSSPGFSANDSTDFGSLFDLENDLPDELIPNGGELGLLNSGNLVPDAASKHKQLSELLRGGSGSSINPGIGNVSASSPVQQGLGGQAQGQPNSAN
Excerpt: as §2

PC-12 cells = PC-12 cells with FAD mutant PS-1 (L286V): neuronal differentiation; type: cell-based
Excerpt: However, the effects of PS-1 mutations on the stability of beta-catenin, TCF/beta-catenin signaling, and thereby its potential role in AD remain controversial. Applicant has shown that introduction of a FAD mutant PS-1 (L286V) into PC-12 cells causes increased TCF/beta-catenin signaling, leading to the inhibition of neurite outgrowth. […] In the CNS, EpB2 expression is associated with axonal guidance (16). […] In initial in vivo studies, applicant treated penta-transgenic mice that over express mutant APP(695) (Swedish (K670N,M671L), Florida ([…]) and London (V717I)) and PS-1 (M146L and L286V) mutations with ICG-001 for 2 months (months 2-4). These mice normally develop massive cerebral deposition of Aβ starting at 6 weeks of age.

[5] = tested on: cerebral deposition of Aβ; test: Aβ deposition in penta-transgenic mouse model of Alzheimer's disease; type: in vivo; conditions: 50 mg/kg/day, 2 months, immunohistochemistry, vs saline
Method: Applicant utilized a penta-transgenic mouse model of AD, which normally develops massive cerebral deposition of Aβ starting at 6 weeks of age. These mice were treated with either (A) ICG-001 (50 mg/kg/day) or (B) saline for 2 months. […] However, the effects of PS-1 mutations on the stability of beta-catenin, TCF/beta-catenin signaling, and thereby its potential role in AD remain controversial. […] In the CNS, EpB2 expression is associated with axonal guidance (16). […] In initial in vivo studies, applicant treated penta-transgenic mice that over express mutant APP(695) (Swedish (K670N,M671L), Florida ([…]) and London (V717I)) and PS-1 (M146L and L286V) mutations with ICG-001 for 2 months (months 2-4). These mice normally develop massive cerebral deposition of Aβ starting at 6 weeks of age.

[6] = tested on: bleomycin-induced pulmonary fibrosis; test: bleomycin-induced lung injury / pulmonary fibrosis; type: in vivo, mouse
Min mouse = Min mouse polyps; conditions: in vivo
Excerpt: (§3) Cancer. The importance of Wnt signaling in colorectal cancer is undisputed. Applicant's investigation on the therapeutic utility of ICG-001 therefore quite naturally began with colon cancer.

hair follicle = conditions: cited from earlier work
elastin = test: ex vivo human skin assay, qRT-PCR of elastin; type: cell-based; conditions: 24 hrs; 5 uM ICG-001, 5 uM methylated ICG-001, 1 ug/ml RA
Method: Methods. Ex Vivo human skin assay culture conditions were based upon a paper by Varani J et al Experimental and Molecular Pathology, 2004.
Briefly, human skin (surgical waste from plastic surgery procedures) was obtained and the subcutaneous layer of fat was trimmed manually with a scalpel. The skin was then cut into small fragments about 2 mm square and placed in 6 well plates. 1 ml of keratinocyte culture medium (Gibco 10724-011) with 1% P/S (penstrep antibiotic) was added to each well. The epidermis, bathed in media was placed facing up. On the next day (overnight culture in the media above), the skin fragments were transferred to fresh wells that contained either 5 uM ICG-001, 5-uM methylated ICG-001 or 1 ug/ml of retinoic acid (RA). After 24 hrs, skin samples in culture were removed for RNA isolation and qRT-PCR analysis of genes of interest (e.g. elastin (a gene involved in skin appearance and pliability (e.g., wrinkling) and aquaporin 1, which is involved with hydration.

colorectal cancer cells = test: colorectal cancer cells: survivin and cytotoxicity; type: cell-based
Excerpt: as §3

Sequence of CBP (Q92793 whole entry): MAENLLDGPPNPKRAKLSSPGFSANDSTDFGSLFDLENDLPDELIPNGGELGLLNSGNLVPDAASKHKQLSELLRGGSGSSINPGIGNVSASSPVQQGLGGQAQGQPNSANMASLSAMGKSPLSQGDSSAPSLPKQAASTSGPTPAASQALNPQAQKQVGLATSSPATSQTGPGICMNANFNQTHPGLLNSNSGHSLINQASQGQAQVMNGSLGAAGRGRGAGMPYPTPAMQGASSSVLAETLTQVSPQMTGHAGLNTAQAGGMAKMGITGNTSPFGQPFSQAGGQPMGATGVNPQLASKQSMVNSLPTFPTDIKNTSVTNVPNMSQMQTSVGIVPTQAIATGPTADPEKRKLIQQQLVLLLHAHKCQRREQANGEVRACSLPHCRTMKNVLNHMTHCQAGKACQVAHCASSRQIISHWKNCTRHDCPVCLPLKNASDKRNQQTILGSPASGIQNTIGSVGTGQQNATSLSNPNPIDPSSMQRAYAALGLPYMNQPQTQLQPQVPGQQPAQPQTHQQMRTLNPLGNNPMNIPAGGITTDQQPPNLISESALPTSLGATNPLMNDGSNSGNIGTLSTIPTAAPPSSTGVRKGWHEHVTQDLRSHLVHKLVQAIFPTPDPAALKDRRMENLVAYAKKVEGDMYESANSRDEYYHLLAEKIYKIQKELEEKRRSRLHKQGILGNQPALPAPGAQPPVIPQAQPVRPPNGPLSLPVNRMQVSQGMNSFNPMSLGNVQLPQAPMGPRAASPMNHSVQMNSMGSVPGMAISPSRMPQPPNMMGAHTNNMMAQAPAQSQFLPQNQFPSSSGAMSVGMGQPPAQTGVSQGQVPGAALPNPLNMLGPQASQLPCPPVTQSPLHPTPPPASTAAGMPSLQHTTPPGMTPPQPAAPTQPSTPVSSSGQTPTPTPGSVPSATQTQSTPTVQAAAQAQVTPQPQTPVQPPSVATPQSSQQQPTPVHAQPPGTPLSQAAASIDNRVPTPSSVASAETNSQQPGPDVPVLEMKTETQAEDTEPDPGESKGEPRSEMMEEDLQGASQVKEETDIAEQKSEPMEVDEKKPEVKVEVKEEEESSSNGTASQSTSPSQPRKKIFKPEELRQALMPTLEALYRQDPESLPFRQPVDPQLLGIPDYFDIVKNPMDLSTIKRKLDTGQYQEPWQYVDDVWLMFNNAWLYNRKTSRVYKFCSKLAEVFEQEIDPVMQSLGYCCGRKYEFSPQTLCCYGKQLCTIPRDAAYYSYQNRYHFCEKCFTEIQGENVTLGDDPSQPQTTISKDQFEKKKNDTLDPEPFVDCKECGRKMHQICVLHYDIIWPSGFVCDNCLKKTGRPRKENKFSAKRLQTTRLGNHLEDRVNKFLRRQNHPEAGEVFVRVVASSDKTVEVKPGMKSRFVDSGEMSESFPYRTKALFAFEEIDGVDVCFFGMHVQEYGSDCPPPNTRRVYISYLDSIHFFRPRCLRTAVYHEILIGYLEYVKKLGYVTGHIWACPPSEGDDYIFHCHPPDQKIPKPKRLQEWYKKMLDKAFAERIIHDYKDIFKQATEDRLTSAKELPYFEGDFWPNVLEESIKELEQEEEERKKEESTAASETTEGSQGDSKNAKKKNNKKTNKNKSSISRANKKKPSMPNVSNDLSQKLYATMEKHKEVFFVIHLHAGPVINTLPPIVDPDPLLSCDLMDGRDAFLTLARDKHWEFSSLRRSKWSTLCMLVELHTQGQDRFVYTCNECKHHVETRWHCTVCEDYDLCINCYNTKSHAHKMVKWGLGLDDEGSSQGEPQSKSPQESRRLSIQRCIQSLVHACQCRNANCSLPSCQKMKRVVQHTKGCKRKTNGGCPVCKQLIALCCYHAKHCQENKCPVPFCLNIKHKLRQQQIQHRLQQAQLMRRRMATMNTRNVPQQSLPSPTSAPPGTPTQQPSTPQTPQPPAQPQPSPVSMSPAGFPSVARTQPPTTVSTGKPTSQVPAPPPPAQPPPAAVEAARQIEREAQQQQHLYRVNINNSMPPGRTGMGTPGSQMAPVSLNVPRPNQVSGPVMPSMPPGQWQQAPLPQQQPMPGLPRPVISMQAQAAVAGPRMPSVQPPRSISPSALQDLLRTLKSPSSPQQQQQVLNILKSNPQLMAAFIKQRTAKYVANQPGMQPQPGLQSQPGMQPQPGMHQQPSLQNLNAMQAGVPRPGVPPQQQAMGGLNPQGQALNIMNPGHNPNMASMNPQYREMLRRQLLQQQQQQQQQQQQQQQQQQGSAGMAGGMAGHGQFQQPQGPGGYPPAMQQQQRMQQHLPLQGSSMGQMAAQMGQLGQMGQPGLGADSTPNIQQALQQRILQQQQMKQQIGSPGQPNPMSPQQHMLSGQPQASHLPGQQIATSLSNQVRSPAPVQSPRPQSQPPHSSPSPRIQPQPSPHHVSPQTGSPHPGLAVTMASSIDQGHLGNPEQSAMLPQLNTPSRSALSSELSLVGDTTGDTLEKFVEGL

Kd (CBP; affinity chromatography approach, read-out: binding affinity to the coactivator CBP): ~1 nM
Kd (CBP; binding and isothermal calorimetry studies, read-out: binding affinity to the N-terminus of CBP): ~1 nM
IC50 [1]: 3000 nM
disruption of the CBP/beta-catenin interaction [4]: disrupted
SMILES: O=C1[C@H](Cc2ccc(O)cc2)N2C(=O)CCN(C(=O)NCc3ccccc3)[C@H]2CN1Cc1cccc2ccccc12 [ICG-001]
effect on the p300/beta-catenin interaction [2]: without affecting the p300/beta-catenin interaction
TGF-β1-induced up-regulation of α-SMA and type I collagen [3]: prevents the TGF-β1-induced up-regulation of α-SMA and type I collagen
GAP43 expression (PC-12 cells; NGF-induced differentiation, vs untreated cells): dramatically increased
neuronal differentiation and neurite outgrowth (PC-12 cells; PS-1 (L286V) mutant cells): rescues the defects in neuronal differentiation and neurite outgrowth
amyloid plaque formation / Aβ staining [5]: significant decrease in amyloid plaque formation; also recorded: decrease in Aβ staining
bleomycin-induced lacZ expression in airway and alveolar epithelium ([6]; BAT-gal transgenic mice): significantly reduced
expression of S100A4/FSP-1 ([6]; bleomycin model in vivo in the mouse and fibroblasts from IPF patients in vitro): significantly decreased the expression of S100A4/FSP-1
established fibrosis ([6]; mouse, in vivo): could reverse established fibrosis
severity of pulmonary fibrosis ([6]; pretreatment): significantly reduced the severity of pulmonary fibrosis
polyps (Min mouse): reducing polyps
survivin expression (hair follicle): decreased survivin expression
hair fiber elongation (hair follicle; dose-dependent): significantly reduced hair fiber elongation
expression of elastin (elastin): increase
survivin expression (colorectal cancer cells): down-regulated survivin
cytotoxicity (colorectal cancer cells; colorectal cancer cells vs normal colonic epithelial cells): selective cytotoxicity in colorectal cancer cells, but not in normal colonic epithelial cells
